In patent US20070203118A1, “SUBSTITUTED TETRAHYDROISOQUINOLINES USED IN THE FORM OF MMP INHIBITORS, METHOD FOR THE PRODUCTION AND USE THEREOF IN THE FORM OF DRUGS” (SANOFI-AVENTIS DEUTSCHLAND GMBH, priority 2004, published 2007):

What was measured:
Assay type in all cases: biochemical
[1] = molecular target: T1, catalytic domain of human gelatinase-A (MMP-9) (Homo sapiens, UniProt P14780); test: Enzymatic activity of the catalytic domain of human gelatinase (MMP-9), fluorogenic substrate; conditions: for MMP9:MMP1, selectivity of inhibition of MMP-9 in relation to MMP-1: ratio of the IC50 values of Table 4
T1 construct: Determination of the Enzymatic Activity of the Catalytic Domain of Human Gelatinase-A (MMP-9); purchased Roche, Mannheim
Description: Determination of the Enzymatic Activity of the Catalytic Domain of Human Gelatinase-A (MMP-9)
Activation of the proenzyme:
(§1) 2 parts by volume of proenzyme were incubated with 1 part by volume of APMA solution at 37° C. for 4 hours. The APMA solution was prepared from a 10 mmol/l p-aminophenylmercuric acetate solution in 0.1 mmol/l NaOH by dilution with 3 parts by volume of Tris/HCl buffer pH 7.5 (see below). The pH was adjusted to between 7.0 and 7.5 by adding 1 mmol/l HCl. After activation of the enzyme it was diluted with the Tris/HCl buffer to a concentration of 4.2 mU/ml.
(§2) The enzymic activity was measured by incubating 10 μl of enzyme solution with 10 μl of a 3% strength (v/v) buffered dimethyl sulfoxide solution (reaction 1) for 15 minutes. The enzyme inhibitor activity was measured by incubating 10 μl of enzyme solution with 10 μl of a 3% strength (v/v) buffered dimethyl sulfoxide solution which contained the enzyme inhibitor (reaction 2).
The enzymic reaction both in the case of reaction 1 and in the case of reaction 2 was followed after addition of 10 μl of a 3% strength (v/v) aqueous dimethyl sulfoxide solution which contained 0.15 mmol/l of the substrate by fluorescence spectroscopy (328 nm (extinction)/393 nm (emission)).
The enzymic activity has been presented as increase in extinction/minute.
The effect of the inhibitor was calculated as percentage inhibition by the following formula: % inhibition=100−[(increase in extinction/minute in reaction 2)/(increase in extinction/minute in reaction 1)×100].
(§3) The IC50, which is the concentration of inhibitor which is necessary for 50% inhibition of the enzymic activity, was determined graphically by plotting the percentage inhibitions at various inhibitor concentrations.
(§4) The buffer solution contained 0.05% Brij (Sigma, Deisenhofen, Germany) and 0.1 mol/l Tris/HCl, 0.1 mol/l NaCl, 0.01 mol/l CaCl2 (pH=7.5). The enzyme solution contained 4.2 mU/ml of the enzyme domain. The substrate solution contained 0.15 mmol/l of the fluorogenic substrate (7-methoxycoumarin-4-yl)acetyl-Pro-Leu-Gly-Leu-3-(2′,4′-dinitrophenyl)-L-2,3-diaminopropionyl-Ala-Arg-NH2 (Bachem, Heidelberg, Germany).

[2] = molecular target: T2, catalytic domain of human stromelysin (MMP-3) (Homo sapiens, UniProt P08254); test: Enzymatic activity of the catalytic domain of human stromelysin (MMP-3), fluorogenic substrate
T2 construct: Preparation and Determination of the Enzymatic Activity of the Catalytic Domain of Human Stromelysin (MMP-3); made in house
Description: (§5) Preparation and Determination of the Enzymatic Activity of the Catalytic Domain of Human Stromelysin (MMP-3) and of Neutrophil Collagenase (MMP-8)
(§6) The two enzymes stromelysin (MMP-3) and neutrophil collagenase (MMP-8) were prepared by the method of Ye et al. (Biochemistry; 31 (1992) pages 11 231-11 235). The enzymic activity or the effect of the enzyme inhibitor was measured by incubating 10 μl of enzyme solution with 10 μl of a 3% strength (v/v) buffered dimethyl sulfoxide solution which contained the enzyme inhibitor where appropriate, for 15 minutes. After addition of 10 μl of a 3% strength (v/v) aqueous dimethyl sulfoxide solution which contained 1 mmol/l of the substrate, the enzymic reaction was followed by fluorescence spectroscopy (328 nm (ex)/393 nm(em)). The enzymic activity is presented as increase in extinction/minute.
(§7) The IC50 values listed in Table 4 were determined as the inhibitor concentrations leading in each case to 50% inhibition of the enzyme. The buffer solution contained 0.05% Brij (Sigma, Deisenhofen, Germany) and 0.1 mol/l Tris/HCl, 0.1 mol/l NaCl, 0.01 mol/l CaCl2 and 0.1 mol/l piperazine-N,N′-bis[2-ethanesulfonic acid] (pH=7.5).
(§8) The MMP-3 enzyme solution contained 2.3 μg/ml and the MMP-8 enzyme solution 0.6 μg/ml of one of the enzyme domains prepared by the method of Ye et al. The substrate solution contained 1 mmol/l of the fluorogenic substrate (7-methoxycoumarin-4-yl)acetyl-Pro-Leu-Gly-Leu-3-(2′,4′-dinitrophenyl)-L-2,3-diaminopropionyl-Ala-Arg-NH2 (Bachem, Heidelberg, Germany).

[3] = molecular target: T3, neutrophil collagenase (MMP-8) (Homo sapiens, UniProt P22894); test: Enzymatic activity of the catalytic domain of neutrophil collagenase (MMP-8), fluorogenic substrate
T3 construct: Catalytic Domain of Human Stromelysin (MMP-3) and of Neutrophil Collagenase (MMP-8); made in house
Description: as §5, §6, §7, §8

[4] = molecular target: T4, catalytic domain of human collagenase-3 (MMP-13) (Homo sapiens, UniProt P45452); test: Enzymatic activity of the catalytic domain of human collagenase-3 (MMP-13), fluorogenic substrate
T4 construct: Determination of the Enzymatic Activity of the Catalytic Domain of Human Collagenase-3 (MMP-13); purchased INVITEK, Berlin
Description: Determination of the Enzymatic Activity of the Catalytic Domain of Human Collagenase-3 (MMP-13)
as §1, with “Activation of the proenzyme: 2” for “2”, “1.5” for “4”, “1.67 μg/ml.” for “4.2 mU/ml.”
as §2
The enzymic reaction both in the case of reaction 1 and in the case of reaction 2 was followed after addition of 10 μl of a 3% strength (v/v) aqueous dimethyl sulfoxide solution which contained 0.075 mmol/l of the substrate by fluorescence spectroscopy (328 nm (extinction)/393 nm (emission)).
The enzymic activity has been presented as increase in extinction/minute. The effect of the inhibitor was calculated as percentage inhibition by the following formula: % inhibition=100−[(increase in extinction/minute in reaction 2)/(increase in extinction/minute in reaction 1)×100].
as §3
as §4, with “1.67 μg/ml” for “4.2 mU/ml”, “0.075” for “0.15”

T1 sequence (P14780 107-707 limits assumed): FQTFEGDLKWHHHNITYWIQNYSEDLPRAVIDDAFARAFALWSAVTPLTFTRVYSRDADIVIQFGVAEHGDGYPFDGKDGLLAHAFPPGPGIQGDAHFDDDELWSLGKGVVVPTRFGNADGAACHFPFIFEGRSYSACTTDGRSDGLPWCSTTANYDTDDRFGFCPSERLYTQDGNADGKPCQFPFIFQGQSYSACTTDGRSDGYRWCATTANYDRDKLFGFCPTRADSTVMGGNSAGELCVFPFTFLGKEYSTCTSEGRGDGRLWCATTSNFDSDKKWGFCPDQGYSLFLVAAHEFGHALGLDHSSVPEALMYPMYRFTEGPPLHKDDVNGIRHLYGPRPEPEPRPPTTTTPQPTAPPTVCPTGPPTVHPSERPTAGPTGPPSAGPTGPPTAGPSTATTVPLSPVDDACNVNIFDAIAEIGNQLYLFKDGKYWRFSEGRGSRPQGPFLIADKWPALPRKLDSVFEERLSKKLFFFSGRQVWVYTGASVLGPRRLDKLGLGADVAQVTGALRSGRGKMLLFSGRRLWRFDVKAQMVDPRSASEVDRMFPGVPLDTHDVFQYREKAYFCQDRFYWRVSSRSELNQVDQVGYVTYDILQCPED
T2 sequence (P08254 100-272 limits assumed): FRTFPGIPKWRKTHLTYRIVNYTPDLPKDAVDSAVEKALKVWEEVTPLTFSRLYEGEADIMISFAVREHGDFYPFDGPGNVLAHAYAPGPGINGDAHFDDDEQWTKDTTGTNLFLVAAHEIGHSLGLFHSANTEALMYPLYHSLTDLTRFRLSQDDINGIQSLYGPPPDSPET
T3 sequence (P22894 100-262 limits assumed): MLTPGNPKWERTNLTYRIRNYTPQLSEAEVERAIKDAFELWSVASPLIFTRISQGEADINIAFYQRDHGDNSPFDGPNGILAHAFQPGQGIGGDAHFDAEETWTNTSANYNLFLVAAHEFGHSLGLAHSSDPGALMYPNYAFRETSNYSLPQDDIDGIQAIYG

Row | Compound | IC50 [1] | MMP9:MMP1, selectivity of inhibition of MMP-9 in relation to MMP-1 [1] | IC50 [2] | IC50 [3] | IC50 [4]
1 | O=C(NO)[C@H]1c2ccccc2CCN1S(=O)(=O)c1ccc(Oc2ccncc2)cc1 [Compound 11] | 1.8 nM | 78 | 25 nM | 3 nM | 2.3 nM
2 | 2-{2-[4-(4-fluorophenoxy)phenyl]ethanesulfonyl}-1,2,3,4-tetrahydroisoquinoline-1-hydroxycarboxamide [Compound 20] | 1.3 nM | 231 | 23 nM | 2.2 nM | 2.2 nM
3 | O=C(NO)[C@H]1c2ccccc2CCN1S(=O)(=O)c1ccc(Oc2ccc(Cl)cc2)cc1 [Compound 9] | 1 nM | 2 | 23 nM | 2.2 nM | 2.1 nM
4 | O=C(NO)[C@H]1c2ccccc2CCN1S(=O)(=O)c1ccc(Oc2ccc(Cl)cc2)nc1 [Compound 45, (R)-2-[6-(4-chlorophenoxy)pyridine-3-sulfonyl]-1,2,3,4-tetrahydroisoquinoline-1-hydroxycarboxamide] | 3 nM | 667 | 45 nM | 9 nM | 8 nM

The next lines start with the values.

Row | IC50 [1] | MMP9:MMP1, selectivity of inhibition of MMP-9 in relation to MMP-1 [1] | IC50 [2] | IC50 [3] | IC50 [4] | Compound
5 | 3.2 nM | 313 | 33 nM | 3.2 nM | 2.5 nM | O=C(NO)[C@H]1c2ccccc2CCN1S(=O)(=O)c1ccc(Oc2ccc(C(F)(F)F)cc2)cc1 [Compound 21, (R)-2-[4-(4-trifluoromethylphenoxy)benzenesulfonyl]-1,2,3,4-tetrahydro-isoquinoline-1-hydroxycarboxamide]
6 | 60 nM | 67 | 800 nM | 14 nM | 7.5 nM | COc1ccc(F)c2c1[C@H](C(=O)NO)N(S(=O)(=O)c1ccc(-c3ccc(Cl)cc3)cc1)CC2 [Compound 18]
7 | 1 nM | 300 | 20 nM | 2 nM | 2 nM | COc1cc2c(cc1OC)[C@@H](C(=O)NO)N(S(=O)(=O)c1ccc(-c3ccc(Cl)cc3)cc1)CC2 [Compound 15]
8 | 2 nM |  | 26 nM | 4 nM | 3 nM | (R)-4-(1-hydroxycarbamoyl-3,4-dihydro-1H-isoquinoline-2-sulfonyl)phenyl benzoate [Compound 48]
9 | 20 nM | >500 | 300 nM | 30 nM | 30 nM | O=C(NO)[C@H]1c2ccccc2CCN1S(=O)(=O)c1ccc(Oc2ccc(OC(F)(F)F)cc2)nc1 [Compound 43, (R)-2-[6-(4-trifluoromethoxyphenoxy)pyridine-3-sulfonyl]-1,2,3,4-tetrahydro-isoquinoline-1-hydroxycarboxamide]
10 | 18 nM | 89 | 520 nM | 110 nM | 130 nM | O=C(NO)[C@H]1c2ccccc2CCN1S(=O)(=O)c1ccc(Oc2ccc(OCC(F)(F)F)cc2)cc1 [Compound 22]
